Patent US20210317111A1, “NOVEL MEDICAMENT FOR TREATING INFLAMMATORY BOWEL DISEASE” (OTSUKA PHARMACEUTICAL CO., LTD., priority 2018, published 2021)
Values after ≈ are worked out from the molar mass of the structure shown.

Key:
TNF-α production = test: inhibition of LPS-induced TNF-α production in human peripheral blood (ELISA); format: cell-based; conditions: 24 hours
Description: The LPS solution which was adjusted to 2 μg/mL with RPMI 1640 medium was added to 48-well plate in the amount of 250 μL/well. The each diluted solution of each test compound and the diluted solution of the solvent control were added to 3 wells for each concentration in the amount of 50 μL/well, 4-fold diluted solution of human peripheral blood was added to each well (200 μL/well), and the wells were incubated at 37° C. in 5% CO2 for 24 hours. As LPS (−) control, RPMI 1640 medium without added LPS was prepared in the same manner. The final concentrations of each test sample were adjusted to 0, 1, 3, 10, 30, and 100 μM, and the final concentration of prednisolone was adjusted to 0.3 μM. 24 hours later from the incubation, each supernatant was collected and stored at −80° C. until the measurement of the TNF-α concentration.
The TNF-α concentration was measured by ELISA with Human TNF-alpha Quantikine ELISA Kit (R & D Systems). Each sample was unfrozen at room temperature, and diluted with Calibrator Diluent RD6-35 (1×) of the kit by 10-fold. The 10-fold diluted supernatant and the TNF-α standard solution were added on TNF-α microplate, and reacted according to the operating manual of the kit. After the coloring, the absorbance at wave length of 450 nm was measured with a microplate reader (Multiskan FC; Thermo Fisher […]), and the calibration curve was prepared with an analysis software (Skanit Software 3.1.0.4 RE for Multiskan FC (ja)) to read the TNF-α concentration of each sample. Calibration curve used a 4-parameter logistic curve.
The inhibition rates were presented as the mean±standard deviation using Microsoft Excel 2010. For each blood donor, the TNF-α production rate under each compound concentration was calculated with the TNF-α concentration in the supernatant of the solvent group as 100%.
The results are averages of the measurements obtained from the human peripheral blood of three volunteers.

[1] = system: activated T cell (CD25+ cell); test: T-cell activation (CD25+ cells) in anti-CD3/CD28/CD2 bead-stimulated PBMC; format: cell-based, human; conditions: both CD4-positive and CD8-positive T-cell
Description: (§1) Peripheral blood (30 mL) derived from a healthy adult was layered on a lymphocyte tube Leucosep™ containing Lymphoprep (15 mL), and the tube was centrifuged at room temperature at 2000 rpm for 20 minutes. After the centrifugation, the upper 5 mL of the plasma was removed from the peripheral blood mononuclear cell (PBMC) layer with an aspirator, and the left solution containing the PBMC layer was collected into a new 50 mL tube. To the collected solution was added an equal amount of Hanks' balanced salt solution (HBSS) to dilute the cell suspension. The diluted solution was centrifuged at 4° C. at 1800 rpm for 5 minutes. After the centrifugation, the supernatant was discarded, the rest was suspended in 10 mL of AIM-V. The suspension was centrifuged at 4° C. at 1500 rpm for 5 minutes, and the supernatant was discarded. The same washing process was repeated one more time. After the centrifugation, the supernatant was discarded, and the obtained cell was suspended in 5% FBS-containing AIM-V to be used in the following tests.
(§2) To 96-well round-bottom plate were added 100 μL of medium containing the compound, 100 μL (0.5×10^5 beads) of anti-CD3/CD28/CD2-loaded bead suspension (Miltenyi), and 100 μL (1×10^5 cells) of PBMC suspension. The mixture was incubated at 37° C. in 5% CO2 for 3 days.

TNF-α = TNF-α production by stimulated PBMC (ELISA); format: cell-based; conditions: stimulated human PBMC, 3 days, culture supernatant
Description: as §1, §2

Fusobacterium spp. = test: antibacterial activity (MIC), agar plate dilution method; format: cell-based; conditions: 17 strains of Fusobacterium spp.; anaerobic, 37° C.
Description: There are plural reports about the relationship between intestinal bacteria and inflammatory bowel disease, and it is thought that Fusobacterium spp., one of the intestinal bacteria is a pathogenic bacteria causing inflammatory bowel disease. […] The antibacterial activity (minimum inhibitory concentration (MIC)) was assayed by agar plate dilution method which is based on Clinical and laboratory standards institute (CLSI). The medium used herein was Brucella medium with sheep blood. […] The bacterial suspension was inoculated onto Brucella agar with sheep blood which contains the present compound or any one of the comparative drugs, and incubated at 37° C. under an anaerobic condition.

Bacteroides spp = test: antibacterial activity against intestinal bacteria (MIC); format: cell-based
Description: (§3) The antibacterial activity of the present compound was examined against Bacteroides spp and Streptococcus spp, which are enterobacteria.
(§4) The antibacterial activity (minimum inhibitory concentration (MIC)) was assayed by agar plate dilution method or broth microdilution method, which is based on Clinical and laboratory standards institute (CLSI). Specifically, the experiment was performed as follows. The compound of the present invention or the control substance was prepared by 2-fold serial dilution, respectively, and test strains were inoculated on the medium suitable for each test strain. After the inoculation followed by incubation at 37° C. under aerobic or anaerobic conditions, the minimum concentration at which colony formation was not observed in agar plate dilution method, or the minimum concentration without turbidity of the culture medium (the bacterial growth was not observed) in broth microdilution method was determined as MIC.

Streptococcus spp = test: as above; format: cell-based
Description: as §3, §4

DSS-induced colitis = DSS-induced colitis model, stool scores; format: in vivo, rat; conditions: for deaths: 8 animals per group
Description: A colitis model induced by dextran sulfate sodium (DSS) is widely used as an experimental ulcerative colitis model having similarities of human ulcerative colitis regarding suppression of weight gain, colitis symptoms such as bloody stools and diarrhea, and injury formation in the large intestine. The effect of the present compound on the ulcerative colitis model was examined, and it was compared with salazosulfapyridine (SASP) clinically used as a therapeutic agent for ulcerative colitis.
Symptoms of colitis were induced by allowing rats to freely drink 3% dextran sulfate sodium (DSS) solution for 10 days. […] For the observation of stool symptoms, the degree of stool condition was scored as the score of stool firmness (Stool Consistency Score: 0, 1, 2, 3) and blood stool (Bloody Stool Score: 0, 1, 2, 3). The total of Stool Consistency Score and Bloody Stool Score was taken as the Total Stool Score. Each group was composed of 8 animals. Salazosulfapyridine (SASP), which is an already-existing drug for treating inflammatory bowel disease, the present compound or the vehicle were administrated for 10 days from the start date of 3% DSS freely drinking.

[2] = 11th day, present compound 1, 3, 10 mg/kg (P<0.01) or SASP 100 mg/kg (P<0.05) orally twice a day, Dunnett's test
[3] = present compound groups, orally twice a day

For Cc1c(-c2cnc(N)c(C#N)c2)c(F)cc2c(=O)c(C(=O)O)cn(C3CC3)c12 [the present compound, 7-(6-amino-5-cyanopyridin-3-yl)-1-cyclopropyl-6-fluoro-1,4-dihydro-8-methyl-4-oxo-3-quinoline-carboxylic acid], the “inhibitory effect on TNF-α production at 100 μM” value (TNF-α production; 100 μM, human peripheral blood) was “completely inhibited”, the “inhibitory activity for TNF-α production over concentration range” value (TNF-α production; 1, 3, 10, 30, 100 μM, human peripheral blood) was “dose-dependent manner” and the IC50 (TNF-α production; human peripheral blood of three volunteers) was 6.25 µM. For the same compound, the “inhibitory activity on T cell activation compared with prednisolone” value ([1]; 30 μM) was “higher inhibitory activity than prednisolone”, the “rate of activated T cell” value ([1]; 6 people's human PBMC, 3 days) was “decreased” and the “cytokine production (TNF-α)” value (TNF-α) was “decreased”. For the same compound, the MIC (Fusobacterium spp.) was 0.25 to 1 µg/mL (≈ 0.661 to 2.64 µM), the antibacterial activity (Bacteroides spp) was “strong antibacterial activities” and the antibacterial activity (Streptococcus spp) was “strong antibacterial activities”. For the same compound, the deaths (DSS-induced colitis; 1 mg/kg orally twice a day) was “One”, the deaths (DSS-induced colitis; 3 mg/kg orally twice a day) was “no death” and the “effect on blood stool score at 10 mg/kg” value (DSS-induced colitis; 10 mg/kg orally twice a day) was “remarkable deterioration suppression effect”. For the same compound, the deaths (DSS-induced colitis; 10 mg/kg orally twice a day) was “no death”, the “bloody stool score vs vehicle control” value (DSS-induced colitis; 11th day, present compound 1 mg/kg (P<0.05), 3, 10 mg/kg (P<0.01) or SASP 100 mg/kg orally twice a day, Dunnett's test) was “Significant differences” and the “stool firmness (Stool Consistency Score) vs vehicle control” value (DSS-induced colitis; [2]) was “Significant differences”. For the same compound, the “total stool score vs vehicle control” value (DSS-induced colitis; [2]) was “Significant differences”, the “day from which deterioration suppression effect on blood stool score was observed” value (DSS-induced colitis; [3]) was “from the 6th day” and the “day from which deterioration suppression effect on stool firmness score was observed” value (DSS-induced colitis; [3]) was “from the 9th day”.
